Experimental findings from patent US20030050307A1, “Novel indole derivatives” (H. Lundbeck A/S, priority 1999, published 2003) are described below.

Test [1] addresses T1, cloned human 5-HT1A-receptors (Homo sapiens, UniProt P08908).
T1 construct: expressed in transfected cells; host or cells: HeLa cells (HA7)
T1 sequence (P08908 1-422): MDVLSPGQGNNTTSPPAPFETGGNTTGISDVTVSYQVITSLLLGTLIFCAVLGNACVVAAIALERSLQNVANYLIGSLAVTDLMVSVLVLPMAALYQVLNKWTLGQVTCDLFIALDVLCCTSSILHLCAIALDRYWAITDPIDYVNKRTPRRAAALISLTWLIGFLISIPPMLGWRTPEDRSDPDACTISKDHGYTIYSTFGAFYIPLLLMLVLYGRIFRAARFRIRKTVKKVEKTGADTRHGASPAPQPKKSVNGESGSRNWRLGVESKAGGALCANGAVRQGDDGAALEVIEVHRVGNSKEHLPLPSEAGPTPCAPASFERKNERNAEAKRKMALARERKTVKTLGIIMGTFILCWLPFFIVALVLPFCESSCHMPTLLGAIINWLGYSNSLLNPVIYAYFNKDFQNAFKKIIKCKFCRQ
Description: Inhibition of 3H-5-CT binding to human 5-HT1A receptors. As to conditions: transfected HeLa cells (HA7), 15 minutes at 37° C., pH 7.7; for inhibition at 0.05 µM: at 50 nM. As to the method: The affinity of the compounds of the invention to 5-HT1A receptors was determined by measuring the inhibition of binding of a radioactive ligand at 5-HT1A-receptors as described in the following test:
Inhibition of ^3H-5-CT Binding to Human 5-HT1A Receptors.
By this method, the inhibition by drugs of the binding of the 5-HT1A-agonist ^3H-5-carboxamido tryptamine (^3H-5-CT) to cloned human 5-HT1A-receptors stably expressed in transfected HeLa cells (HA7) (Fargin, A. et al. J. Biol. Chem. 1989, 264, 14848) is determined in vitro. The assay was performed as a modification of the method described by Harrington, M. A. et al. J. Pharmacol. Exp. Ther. 1994, 268, 1098. Human 5-HT1A-receptors (40 μg of cell homogenate) were incubated for 15 minutes at 37° C. in 50 mM Tris buffer at pH 7.7 in the presence of ^3H-5-CT. Non-specific binding was determined by including 10 μM of metergoline. The reaction was terminated by rapid filtration through Unifilter GF/B filters on a Tomtec Cell Harvester. Filters were counted in a Packard Top Counter.

In test [2] the target is T2, human cloned dopamine D4.2-receptors (Homo sapiens, UniProt P21917, DEL265-296).
T2 construct: expressed in transfected cells; host or cells: CHO cells
T2 sequence (P21917 with tags, fused parts or gaps DEL265-296): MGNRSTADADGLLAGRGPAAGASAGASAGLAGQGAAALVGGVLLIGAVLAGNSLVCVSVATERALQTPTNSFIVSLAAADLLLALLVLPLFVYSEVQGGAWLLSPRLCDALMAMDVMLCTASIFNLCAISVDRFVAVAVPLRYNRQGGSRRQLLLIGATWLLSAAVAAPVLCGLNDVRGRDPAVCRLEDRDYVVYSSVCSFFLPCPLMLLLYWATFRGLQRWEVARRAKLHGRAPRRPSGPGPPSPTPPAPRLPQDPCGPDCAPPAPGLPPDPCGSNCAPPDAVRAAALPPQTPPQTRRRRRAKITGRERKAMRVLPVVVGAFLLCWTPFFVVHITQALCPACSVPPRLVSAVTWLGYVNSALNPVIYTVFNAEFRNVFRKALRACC
Kind of test: Inhibition of the binding of 3H-YM-09151-2 to human dopamine D4 receptors. As to conditions: [3H]YM-09151-2 0.06 nM; for IC50: membranes of CHO-cells expressing human D4.2; for inhibition at 0.1 µM: at 100 nM, CHO-cell membranes, human D4.2. As to the method:
Inhibition of the Binding of ^3H-YM-09151-2 to Human Dopamine D4 Receptors
By this method, the inhibition by drugs of the binding of [^3H]YM-09151-2 (0.06 nM) to membranes of human cloned dopamine D4.2-receptors expressed in CHO-cells is determined in vitro. Method modified from NEN Life Science Products, Inc., technical data certificate PC2533-10/96.

For the compound `Clc1cccc(Cl)c1SCCCN1CCN(c2cccc3[nH]ccc23)CC1` [Compound 4q, 4-{4-[3-(2,6-Dichloro-phenylsulfanyl)-propyl]-piperazin-1-yl}-1H-indole], the IC50 was 3.5 nM in test [1] and 7.2 nM in test [2].
The like results for `N#Cc1cc(Br)c(OCCCN2CCN(c3cccc4[nH]ccc34)CC2)c(Br)c1` [Compound 4o, 3,5-Dibromo-4-{3-[4-(1H-indol-4-yl)-piperazin-1-yl]-propoxy}-benzonitrile] were, in that order, 0.72 nM and 32 nM.
The like results for `Fc1ccc(SCCN2CCN(c3cccc4[nH]ccc34)CC2)c(Cl)c1` [Compound 3a, 4-{4-[2-(2-Chloro-4-fluoro-phenylsulanyl)-ethyl]-piperazin-1-yl}-1H-indole] were, in that order, 15 nM and 6.6 nM.
The like results for `Fc1cc(Br)cc(F)c1OCCCCN1CCN(c2cccc3[nH]ccc23)CC1` [Compound 4j, 4-{4-[4-(4-Bromo-2,6-difluoro-phenoxy)-butyl]-piperazin-1-yl}-1H-indole] were, in that order, 17 nM and 23 nM.
In the case of `Clc1cccc(SCCCN2CCN(c3cccc4[nH]ccc34)CC2)c1` [Compound 5ao, 4-{4-[3-(3-Chloro-phenylsulfanyl)-propyl]-piperazin-1-yl}-1H-indole], the inhibition at 0.05 µM in test [1] was 100%. Besides, the inhibition at 0.1 µM in test [2] was found to be 102%.
Regarding `Fc1ccc(SCCCN2CCN(c3cccc4[nH]ccc34)CC2)c(Cl)c1` [Compound 4a], the IC50 in test [1] was 9.3 nM; in test [2], 0.52 nM.
The like results for `Fc1cc(Br)c(OCCCCN2CCN(c3cccc4[nH]ccc34)CC2)c(Br)c1` [Compound 4k, 4-{4-[4-(2,6-Dibromo-4-fluoro-phenoxy)-butyl]-piperazin-1-yl}-1H-indole] were, in that order, 6.7 nM and 26 nM.
Regarding `C=CCc1cccc(Cl)c1OCCN1CCN(c2cccc3[nH]ccc23)CC1` [Compound 5ae, 4-{4-[2-(2-Allyl-6-chloro-phenoxy)-ethyl]-piperazin-1-yl}1H-indole], the inhibition at 0.05 µM in test [1] was 92%. Also, the inhibition at 0.1 µM in test [2] stood at 88%.
Turning to `FC(F)(F)Oc1ccc(SCCCN2CCN(c3cccc4[nH]ccc34)CC2)cc1` [Compound 5ax, 4-{4-[3-(4-Trifluoromethoxy-phenylsulfanyl)-propyl]-piperazin-1-yl}-1H-indole], the inhibition at 0.05 µM in test [1] worked out at 81%. Further, the inhibition at 0.1 µM in test [2] came out at 98%.
On to `Fc1cc(F)c(OCCCN2CCN(c3cccc4[nH]ccc34)CC2)c(Br)c1` [Compound 4h, 4-{4-[3-(2-Bromo-4,6-difluoro-phenoxy)-propyl]-piperazin-1-yl}-1H-indole], for which the results for the half-inhibitory concentration (IC50) in test [1] and in test [2] were 1.4 nM and 5.4 nM, respectively.
Regarding `Clc1ccccc1SCCCCN1CCN(c2cccc3[nH]ccc23)CC1` [Compound 5ar, 4-{4-[4-(2-Chloro-phenylsulfanyl)-butyl]-piperazin-1-yl}-1H-indole], in test [1], the inhibition at 0.05 µM turned out to be 104%. Further, the inhibition at 0.1 µM in test [2] is 98%.
On to `Cc1cccc(Cl)c1SCCCCN1CCN(c2cccc3[nH]ccc23)CC1` [Compound 2e, 4-{4-[4-(2-Chloro-6-methyl-phenylsulfanyl)-butyl]-piperazin-1-yl}-1H-indole], for which the IC50 in test [1] stood at 4.5 nM; in test [2], 2.2 nM.
Take `Clc1cccc(SCCCCN2CCN(c3cccc4[nH]ccc34)CC2)c1` [Compound 5aq, 4-{4-[4-(3-Chloro-phenylsulfanyl)-butyl]-piperazin-1-yl}-1H-indole]: the inhibition at 0.05 µM in test [1] came to 100%. In test [2], the inhibition at 0.1 µM was 98%.
For the compound `FC(F)(F)c1ccccc1SCCCN1CCN(c2cccc3[nH]ccc23)CC1` [Compound 5af, 4-{4-[3-(2-Trifluoromethyl-phenylsulfanyl)-propyl]-piperazin-1-yl}-1H-indole], in test [1], the inhibition at 0.05 µM was 93%. Moreover, the 50% inhibitory concentration (IC50) in test [2] is 7.2 nM.
For `Clc1ccccc1SCCN1CCN(c2cccc3[nH]ccc23)CC1` [Compound 5an, 4-{4-[2-(2-Chloro-phenylsulfanyl)-ethyl]-piperazin-1-yl}-1H-indole], the inhibition at 0.05 µM in test [1] was 91%. Besides, the inhibition at 0.1 µM in test [2] turned out to be 83%.
Take `Cc1cccc(C)c1OCCN1CCN(c2cccc3[nH]ccc23)CC1` [Compound 5aa, 4-{4-[2-(2,6-Dimethyl-phenoxy)-ethyl]-piperazin-1-yl}-1H-indole]: the inhibition at 0.05 µM in test [1] was 78%. Also, the inhibition at 0.1 µM in test [2] was 81%.
The like results for `COc1ccc(SCCCCN2CCN(c3cccc4[nH]ccc34)CC2)cc1OC` [Compound 5av, 4-{4-[4-(3,4-Dimethoxy-phenylsulfanyl)-butyl]-piperazin-1-yl}-1H-indole] were, in that order, 69% and 107%.
For `Fc1ccc(OCCCCN2CCN(c3cccc4[nH]ccc34)CC2)c(Br)c1` [Compound 4b, 4-{4-[4-(2-Bromo-4-fluoro-phenoxy)-butyl]-piperazin-1-yl}-1H-indole], the IC50 in test [1] amounted to 2.4 nM; in test [2], 0.66 nM.
`CCc1ccccc1OCCCCN1CCN(c2cccc3[nH]ccc23)CC1` [Compound 5ai, 4-{4-[4-(2-Ethyl-phenoxy)-butyl]-piperazin-1-yl}-1H-indole]: the inhibition at 0.05 µM in test [1] stood at 93%. The inhibition at 0.1 µM in test [2] was found to be 90%.
`Fc1cc(F)c(OCCN2CCN(c3cccc4[nH]ccc34)CC2)c(Br)c1` [Compound 4p, 4-{4-[2-(2-Bromo-4,6-difluoro-phenoxy)-ethyl]-piperazin-1-yl}-1H-indole]: the concentration for half-maximal inhibition (IC50) in test [1] is 36 nM; in test [2], 13 nM.
As to `c1ccc(SCCCCN2CCN(c3cccc4[nH]ccc34)CC2)cc1` [Compound 5aj, 4-[4-(4-Phenylsulfanyl-butyl)-piperazin-1-yl]-1H-indole], the inhibition at 0.05 µM in test [1] amounted to 77%. Moreover, in test [2], the inhibition at 0.1 µM came to 100%.
On to `Fc1ccc(OCCCN2CCN(c3cccc4[nH]ccc34)CC2)c(Cl)c1` [Compound 4e, 4-{4-[3-(2-Chloro-4-fluoro-phenoxy)-propyl]-piperazin-1-yl}-1H-indole], for which the half-maximal inhibitory concentration (IC50) in test [1] is 4.9 nM; in test [2], 2 nM.
In the case of `Fc1cc(Br)cc(F)c1OCCCN1CCN(c2cccc3[nH]ccc23)CC1` [Compound 4m, 4-{4-[3-(4-Bromo-2,6-difluoro-phenoxy)-propyl]-piperazin-1-yl}-1H-indole], the values for the IC50 in test [1] and in test [2] were 1 nM and 39 nM, respectively.
The like results for `Brc1cc(Br)c(OCCCN2CCN(c3cccc4[nH]ccc34)CC2)c(Br)c1` [Compound 4l, 14-{4-[3-(2,4,6-Tribromo-phenoxy)-propyl]-piperazin-1-yl}-1H-indole] were, in that order, 1.1 nM and 28 nM.
The like results for `Fc1cc(Cl)c(OCCCN2CCN(c3cccc4[nH]ccc34)CC2)c(Cl)c1` [Compound 4i, 4-{4-[3-(2,6-Dichloro-4-fluoro-phenoxy)-propyl]-piperazin-1-yl}-1H-indole] were, in that order, 1 nM and 16 nM.
For `Cc1ccc(SCCN2CCN(c3cccc4[nH]ccc34)CC2)c(C)c1` [Compound 5ac, 4-{4-[2-(2,4-Dimethyl-phenylsulfanyl)-ethyl]-piperazin-1-yl}-1H-indole], in test [1], the inhibition at 0.05 µM came to 85%. Further, the inhibition at 0.1 µM in test [2] came out at 83%.
The like results for `Clc1ccc(Cl)c(SCCN2CCN(c3cccc4[nH]ccc34)CC2)c1` [Compound 5al, 4-{4-[2-(2,5-Dichloro-phenylsulfanyl)-ethyl]-piperazin-1-yl}-1H-indole] were, in that order, 92% and 96%.
